The values that follow are results of earlier work, collected in patent US5672605A, “Macrolide immunomodulators” (Abbott Laboratories, priority 1995, dated 1997).

Molecules are shown by their SMILES.

The conditions of data set [1]: rapamycin alone or in combination with picibanil.
The subject of data set [2] is experimental allergic encephalomyelitis model, a model for multiple sclerosis. As to conditions: in vivo.
A further data set relates to Candida albicans. To be noted: particularly against Candida albicans, both in vitro and in vivo.
Data set [3] relates to adjuvant arthritis model, a model for rheumatoid arthritis. To be noted: in vivo.

For the molecule `C=CC[C@@H]1/C=C(\C)C[C@H](C)C[C@H](OC)[C@H]2O[C@@](O)(C(=O)C(=O)N3CCCC[C@H]3C(=O)O[C@H](/C(C)=C/[C@@H]3CC[C@@H](O)[C@H](OC)C3)[C@H](C)[C@@H](O)CC1=O)[C@H](C)C[C@@H]2OC` [FK-506], the “binding to FKBP-12, in words” value in the data set on FKBP-12 is listed as “binds to FKBP-12”.
For `CO[C@H]1C[C@@H]2CC[C@@H](C)[C@@](O)(O2)C(=O)C(=O)N2CCCC[C@H]2C(=O)O[C@H]([C@H](C)C[C@@H]2CC[C@@H](O)[C@H](OC)C2)CC(=O)[C@H](C)/C=C(\C)[C@@H](O)[C@@H](OC)C(=O)[C@H](C)C[C@H](C)/C=C/C=C/C=C/1C` [rapamycin], the “inhibition of the formation of IgE-like antibodies” value in the data set with IgE-like antibodies is listed as “effectively inhibit the formation of IgE-like antibodies”. In addition, the “antitumor activity, in words” value in data set [1] is “antitumor activity”. Further, the “binding to FKBP-12, in words” value in the data set on FKBP-12 is listed as “binds to FKBP-12”. The “immunosuppressant effect in experimental allergic encephalomyelitis model” value in data set [2] is “effective as an immunosuppressant”. Moreover, the “antifungal activity, in words” value with Candida albicans is reported as “antifungal activity”. Further, the “immunosuppressant effect in adjuvant arthritis model” value in data set [3] was “effective as an immunosuppressant”.
